Tests used:
[1] = molecular target: Cholesterol 24-hydroxylase (Homo sapiens, UniProt Q9Y6A2); test: Inhibition of CYP46A1 (unknown origin); assay type: ADME
[2] = Antioxidant activity assessed as trolox equivalent of ORAC radical scavenging activity by ORAC assay; assay type: functional
[3] = molecular target: Cholinesterase (Homo sapiens) (UniProt P06276); test: Inhibition of human BChE at 800 uM using butyrylthiocholine iodide as substrate incubated for 10 mins by Ellman's method
[4] = test system: SARS-CoV-2; test: Antiviral activity against SARS-CoV-2; assay type: functional, Severe acute respiratory syndrome coronavirus 2
[5] = Inhibition of 5HT uptake in Sprague-Dawley rat brain Synaptosome; assay type: subcellular
[6] = molecular target: Sodium-dependent serotonin transporter (Rattus norvegicus, UniProt P31652); test: Displacement of [3H]-5HT from rat SERT expressed in CHO cells incubated for 20 mins by liquid scintillation analysis; assay type: cell-based
Sequence of Sodium-dependent serotonin transporter (P31652 whole entry): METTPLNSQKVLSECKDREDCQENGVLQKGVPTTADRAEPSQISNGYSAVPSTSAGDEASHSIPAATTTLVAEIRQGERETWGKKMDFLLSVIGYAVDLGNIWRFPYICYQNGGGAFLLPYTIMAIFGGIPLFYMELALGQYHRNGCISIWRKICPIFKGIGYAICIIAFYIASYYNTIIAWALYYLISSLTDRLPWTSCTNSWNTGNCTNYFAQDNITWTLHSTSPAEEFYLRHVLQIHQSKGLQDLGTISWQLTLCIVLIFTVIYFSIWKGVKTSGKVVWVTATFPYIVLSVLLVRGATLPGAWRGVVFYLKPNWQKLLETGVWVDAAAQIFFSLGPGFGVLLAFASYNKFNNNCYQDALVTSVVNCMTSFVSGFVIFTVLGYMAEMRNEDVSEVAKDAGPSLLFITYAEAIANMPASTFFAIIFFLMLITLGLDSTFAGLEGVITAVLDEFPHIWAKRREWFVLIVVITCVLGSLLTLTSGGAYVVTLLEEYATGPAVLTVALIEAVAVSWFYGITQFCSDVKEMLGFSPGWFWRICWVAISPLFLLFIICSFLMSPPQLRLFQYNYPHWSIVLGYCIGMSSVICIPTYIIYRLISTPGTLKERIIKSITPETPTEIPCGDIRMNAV

Sequence of Cholesterol 24-hydroxylase (Q9Y6A2 whole entry): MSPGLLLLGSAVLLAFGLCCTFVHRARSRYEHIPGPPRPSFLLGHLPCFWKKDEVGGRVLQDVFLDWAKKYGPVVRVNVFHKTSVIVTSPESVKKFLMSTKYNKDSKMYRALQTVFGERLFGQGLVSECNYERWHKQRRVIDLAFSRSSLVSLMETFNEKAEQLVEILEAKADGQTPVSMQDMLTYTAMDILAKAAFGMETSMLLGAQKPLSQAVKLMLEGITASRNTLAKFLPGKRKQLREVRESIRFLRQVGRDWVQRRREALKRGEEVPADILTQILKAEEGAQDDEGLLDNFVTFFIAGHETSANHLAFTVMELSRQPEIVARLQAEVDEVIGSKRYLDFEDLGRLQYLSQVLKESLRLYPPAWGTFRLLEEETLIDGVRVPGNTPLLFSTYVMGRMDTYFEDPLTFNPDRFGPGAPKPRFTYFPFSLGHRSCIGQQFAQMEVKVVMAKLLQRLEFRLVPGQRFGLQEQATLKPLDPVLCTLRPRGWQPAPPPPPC
Sequence of Cholinesterase (Homo sapiens) (P06276 whole entry): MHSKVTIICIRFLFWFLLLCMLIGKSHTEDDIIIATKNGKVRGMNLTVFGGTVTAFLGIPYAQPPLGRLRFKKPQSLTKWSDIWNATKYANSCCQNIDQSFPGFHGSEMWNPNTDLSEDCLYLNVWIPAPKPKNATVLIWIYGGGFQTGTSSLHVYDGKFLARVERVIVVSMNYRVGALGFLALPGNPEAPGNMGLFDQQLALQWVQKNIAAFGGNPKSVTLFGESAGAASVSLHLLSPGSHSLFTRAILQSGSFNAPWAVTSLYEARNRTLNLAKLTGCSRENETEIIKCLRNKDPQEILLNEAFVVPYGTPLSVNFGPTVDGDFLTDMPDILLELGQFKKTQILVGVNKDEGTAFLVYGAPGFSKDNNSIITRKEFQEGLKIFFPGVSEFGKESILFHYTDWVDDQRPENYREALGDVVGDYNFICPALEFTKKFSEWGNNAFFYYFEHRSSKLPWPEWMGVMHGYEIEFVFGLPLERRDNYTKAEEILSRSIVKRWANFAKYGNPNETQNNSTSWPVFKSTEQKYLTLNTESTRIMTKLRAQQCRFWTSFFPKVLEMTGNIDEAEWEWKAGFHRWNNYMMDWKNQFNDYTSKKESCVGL

Q: For `O=C(/C=C/c1ccc(O)c(O[C@@H]2O[C@H](CO)[C@@H](O)[C@H](O)[C@H]2O)c1)NCCCNCCCCNC(=O)CCc1ccc(O)c(O)c1`, which Ki [1] is on record?
A: 12.9 nM

Q: For `O=C1CCc2cc(O)c(O)cc2[C@H](c2ccc(O)c(O)c2)CC(=O)NCCCCNCCCN1`, which Activity [2] is on record?
A: 2.37 µM

Q: What about the inhibition [3] of the same molecule?
A: 18.1%

Q: For `O=C(/C=C/c1ccc(O)c(O)c1)NCCCNCCCCNC(=O)CCc1ccc(O[C@@H]2O[C@H](CO)[C@@H](O)[C@H](O)[C@H]2O)c(O)c1`, which Ki [1] is on record?
A: 258 nM

Q: For `O=C1CCc2cc(O)c(O)cc2[C@@H](c2ccc(O)c(O)c2)CC(=O)NCCCCNCCCN1`, which Activity [2] is on record?
A: 2.68 µM

Q: And the inhibition [3]?
A: 37.8%

Q: Which “inhibition (INH)” value [4] does the source give for `NCCCCNCCCN` [SPERMIDINE] here?
A: 85%

Q: With `O=C(/C=C/c1ccc(O[C@@H]2O[C@H](CO)[C@@H](O)[C@H](O)[C@H]2O)c(O)c1)NCCCNCCCCNC(=O)CCc1ccc(O)c(O)c1` as the molecule, how does the Ki [1] read?
A: 106 nM

Q: For `O=C(/C=C/c1ccc(O)cc1)NCCCCN(CCCNC(=O)/C=C/c1ccc(O)cc1)C(=O)/C=C\c1ccc(O)cc1`, which IC50 [5] is on record?
A: 1070 nM

Q: What about the IC50 [6] of the same molecule?
A: 740 nM

Reference: ChEMBL document CHEMBL5107984, “The untapped potential of spermidine alkaloids: Sources, structures, bioactivities and syntheses” (Eur J Med Chem, 2022)
